Read-outs that look alike come from different tables or passages of the source.
Key:
LDL = experiment: Logistic regression models of attaining LDL goal: odds ratios for concurrent or prior drug doses; type: in vivo, patients; details: for OR: per dose increment
Description: G. Covariates for the multivariate model—The following list includes the predictors one or more of which may be tested in the multivariate models. • 1. AGE: (expressed in units of 10 years) at time that the new statin prescription was released • 2. GENDER, E. G., MALE: 1=yes, 0=no • 3. BMI (kg/M^2): last value before release date • 4. HBA1C (hemoglobin Alc): last value before release date • 5. PLDL: preceding LDL level expressed in e.g. 10 mg/dl units • 6. Statins • a. PLOVA: prior daily dose of lovastatin expressed in e.g. 10 mg units • b. […] For additional drugs: • a. AMIODOSE: amiodarone dose in mg/day • b. CARBDOSE: carbemazepine dose in mg/day • c. PIOGDOSE: pioglitazone dose expressed as number of 15 mg doses per day • d. […] METFDOSE: metformin dose expressed as number of 1000 mg doses per day • f. PHENDOSE: phenyloin dose in mg/day • g. RISPDOSE: risperidone dose in mg/day • h. ROSIDOSE: rosiglitazone dose in mg/day • i.
Body mass index (BMI) was chosen as a covariate of statin response because obese patients tend to consume a diet high in cholesterol. It was hypothesized that they would respond less well to statins because their hypercholesterolemia was more likely to be mediated by dietary indiscretion than excessive LDL synthesis. […] Metformin and the thiazolidinediones were chosen because they reduce LDL levels in diabetic patients through mechanisms that may or may not be affected by concurrent statin treatment. The remaining non-statin drugs were chosen because they are commonly used drugs that potentiate the effect of statins. They were selected by reviewing the official on-line VA pharmaceutical reference (Micromedex®) for major interactions mediated by impaired statin metabolism. […] The daily dose of the non-statin drug was calculated by the method described in Section B.
H. Assembling the predictor file—The patient identifier was used to link the new statin prescription type and dose, the preceding LDL above goal, and the type and dose of the previous statin (if any) with the patient's most recent HbA1c, most recent BMI, and the daily doses of 9 drugs with major statin interactions that were active at the time the new prescription was released.
The dependent variable was attainment of goal (LDL <100 mg/dl). […] Step selections were based upon the maximal likelihood method with α<0.15 to enter and ≧0.15 to remove.

[1] = cited from earlier work
[2] = odds of goal LDL <100 mg/dl, Lovastatin 20 mg [A] model (includes HbA1c; n = 595)
[3] = odds of goal, Lovastatin 20 mg [B] model (excludes HbA1c; n = 733)
[4] = odds of goal, Lovastatin 40 mg model (n = 764)
[5] = odds of goal, Simvastatin 10 mg [A] model (no previous treatment; n = 172)
[6] = odds of goal, Simvastatin 10 mg [C] model (excludes BMI; n = 219)
[7] = odds of goal, Simvastatin 40 mg model (n = 698)

Row | SMILES | OR (LDL; [3]) | Severity of the interaction ([1]; with Atorva) | Severity of the interaction ([1]; with Simva) | Increased risk of toxicity or reduced statin effectiveness ([1]; with Atorva) | Increased risk of toxicity or reduced statin effectiveness ([1]; with Lova) | Severity of the interaction ([1]; with Lova) | Increased risk of toxicity or reduced statin effectiveness ([1]; with Simva) | also measured
1 | CN(C)C(=N)N=C(N)N [Metformin, metformin] | 1.26 |  |  |  |  |  |  | Odds ratio for concurrent treatment (LDL; for every 1,000 mg daily, 2 models): 1.3; OR (LDL; [2]): 1.30; OR (LDL; [4]): 1.22; OR (LDL; [5]): 1.84; OR (LDL; [6]): 1.98; OR (LDL; [7]): 1.31; Increase of odds of reaching goal (LDL; patient taking metformin, simvastatin 40 mg model): 30%
2 | COc1ccc([C@@H]2Sc3ccccc3N(CCN(C)C)C(=O)[C@@H]2OC(C)=O)cc1 [Diltiazem, diltiazem] | 1.69 |  |  |  |  |  |  | Increase of odds of reaching goal (LDL; for every 120 mg per day diltiazem, lovastatin 20 mg model): 70%; OR (LDL; [2]): 1.44; OR (LDL; [4]): 1.35; OR (LDL; [5]): 1.78; OR (LDL; [6]): 1.76; OR (LDL; [7]): 1.70
3 | O=C1NC(=O)C(c2ccccc2)(c2ccccc2)N1 [Phenytoin] |  | 2 | 2 |  |  |  |  | Increased risk of toxicity or reduced statin effectiveness ([1]; with Fluva): (+); Severity of the interaction ([1]; with Fluva): 2
4 | Cc1c(O)cccc1C(=O)N[C@@H](CSc1ccccc1)[C@H](O)CN1C[C@H]2CCCC[C@H]2C[C@H]1C(=O)NC(C)(C)C [Nelfinavir] |  | 3 | 3 | (+) | (+) | 3 | (+) | 
5 | COc1ccccc1Oc1c(NS(=O)(=O)c2ccc(C(C)(C)C)cc2)nc(-c2ncccn2)nc1OCCO [Bosentan] |  | 2 | 2 |  |  | 2 |  | 
6 | CCc1ccc(CCOc2ccc(CC3SC(=O)NC3=O)cc2)nc1 (stereo not drawn) [Pioglitazone, pioglitazone] | 2.06 |  |  |  |  |  |  | 
7 | CCC(C)n1ncn(-c2ccc(N3CCN(c4ccc(OCC5COC(Cn6cncn6)(c6ccc(Cl)cc6Cl)O5)cc4)CC3)cc2)c1=O (stereo not drawn) [Itraconazole] |  | 3 | 4 | (+) | (+) | 4 | (+) | Increased risk of toxicity or reduced statin effectiveness ([1]; with Rosuva): (+); Severity of the interaction ([1]; with Rosuva): 2
8 | CCCCc1oc2ccccc2c1C(=O)c1cc(I)c(OCCN(CC)CC)c(I)c1 [Amiodarone] |  |  | 3 |  |  | 3 |  | 
9 | CC(C)(Oc1ccc(C2CC2(Cl)Cl)cc1)C(=O)O (stereo not drawn) [Ciprofibrate] |  | 3 | 3 | (+) | (+) | 3 | (+) | Increased risk of toxicity or reduced statin effectiveness ([1]; with Fluva): (+); Severity of the interaction ([1]; with Fluva): 3; Increased risk of toxicity or reduced statin effectiveness ([1]; with Prava): (+); Severity of the interaction ([1]; with Prava): 3
10 | O=C1NC(c2ccccc2)(c2ccccc2)C(=O)N1COP(=O)(O)O [Fosphenytoin] |  | 2 | 2 |  |  |  |  | 

Reference: US20110245283A1, “Methods for predicting the response to statins” (priority 2009, published 2011)
